Assay results as given in patent publication US20070009544A1, “Anti-allergic complex molecules” (priority 1999, published 2007).
In brackets after ≈: the same amount, converted by molar mass. Numbered stars: 1 amine (or outer) side, 2 acyl side, 3 side chain; on linkers, the order of the positions; unused ones are H or OH. Square brackets hold non-standard residues; d marks the D form. Ends that are not written are not given here. Peptide text beside a SMILES is read from it. Suc = O=C(CCC(=O)[*:2])[*:1]; Sar = CNCC(=O)O

Legend:
[1] = system: purified rat peritoneal mast cells; assay type: cell-based; conditions: for maximal inhibition of compound 48/80 induced histamine secretion: 600 μg/ml peptide, compound 48/80 concentration not given; for Inhibitor (extent of inhibition of histamine secretion from mast cells): Table 9
Procedure: 37° C. […] Each data point represents the average of duplicate measurements. The spontaneously released histamine was subtracted.
First, the effect of compound 48/80 on exocytosis from intact mast cells was determined. […] Histamine release was determined and is presented as the net secretion that is % of the total cellular histamine following subtraction of the spontaneously released histamine. Half-maximal release was obtained at 0.1 μg/ml while maximal release was obtained at 1-10 μg/ml. Accordingly, in order to analyze the potential of each peptide to block histamine secretion, histamine secretion was induced with 5 μg/ml compound 48/80, a concentration that induces a maximal histamine release, while the cells were incubated in the presence of increasing concentrations of each peptide.
In order to investigate the ability of these peptides to block allergen-induced exocytosis, the peptides were examined for their ability to block compound 48/80 induced histamine secretion from intact mast cells in vitro. Mast cells were incubated with different concentrations of each peptide, followed by induction of histamine secretion by compound 48/80.

[2] = system: purified rat peritoneal mast cells; experiment: Histamine secretion from intact mast cells incubated with peptide alone (secretagogue side effect); conditions: for Secretagogue (histamine secretion following incubation of mast cell with different concentrations of each peptide): no allergen; for histamine secretion from mast cells on incubation with increasing concentrations of peptide alone: no additional allergen
Procedure: Mast cells from the peritoneal cavity of C.R rats were isolated in Tyrode buffer (137 mM NaCl, 2.7 mM KC1, 1 mM MgCl2, 0.4 mM NaH2PO4, 20 mM Hepes, 1.0 mM CaCl2, 5.6 mM glucose, 1 mg/ml BSA, pH 7.2) and purified over a Ficoll gradient. A suspension of washed peritoneal cells was placed over a cushion of 30% Ficoll 400 (Pharmacia Biotech.) in buffered Saline containing 0.1% BSA; and centrifuged at 150O×g for 15 min. The purity of mast cells recovered from the bottom of the tube was >90%, as assessed by toluidine blue staining.
Purified mast cells (duplicated of 10^5 cells/0.5 ml) were incubated in Tyrode buffer with buffer or with desired concentrations of the indicated peptide for 2 h. at. 37° C. Histamine secretion was subsequently stimulated by the indicated concentration of compound 48/80 (Sigma) dissolved in Tyrode buffer. Incubation with compound 48/80 was carried out for 20 mm.in at 37° C. The reaction was terminated by placing the tubes on ice. The cells were sedimented by centrifugation at 150×g for 5 mm.in and the supernatants were collected. The amount of histamine release was determined as previously described (Aridor et al., 1990). Briefly, cell pellets were lysed using 0.1N NaOH and the volume of each sample was adjusted to 0.5 ml by H2O. Histamine content was assayed using the o-phtalaldehyde (OPT) fluorimetric method (Shore et al., 1959). Aliquots of 0.4 ml from the supernatants and cell lysates were incubated with 1.6 ml H20, 0.4 ml 1N NaOH and 0.1 ml of 10 mg/l ml OPT in methanol, for 4 min at room temperature. The reaction was terminated by the addition of 0.2 ml 3N HCl. Samples were centrifuged at 150×g for 5 min. and 0.2 ml samples were transferred to a 96 well plate. The histamine spectrofluorometric assay was run in microplates using a microplates reader (FL-600, Biotek instruments Winooski, Vt., USA). Samples were excited by light at 340 nm and read at 440 nm. Histamine release was calculated as the percentage of total histamine content (supernatant/pellet+supernatant) in each sample. Each data point represents the average of duplicate measurements. The spontaneously released histamine was subtracted.

[3] = system: abdominal skin of C.R rats; experiment: Rat skin test: intradermal injection of peptide, then intradermal compound 48/80 or vehicle, wheal area; assay type: in vivo; conditions: for Mean Wheal Area ± STD, Compound 48/80: 0.5 hour before allergic induction; for Mean Wheal Area ± STD, Vehicle: 0.5 hour before, vehicle instead of compound 48/80
Procedure: The hair of the abdominal area of C.R rats was carefully removed with an electric clipper and a depilatory cream. In each animal the abdominal area was divided to six equal zones that were marked by pen. Each zone was either subjected to peptide treatment or served as a control. In the first set of experiments, the peptide was topically applied as follows: 36 μl of peptide solution at the indicated concentration (dissolved in 72% DMSO in saline) was applied on desired abdominal area. In the second set of experiments, the peptide was injected intradermally as follows: 20 μl of peptide solution at different concentrations (dissolved in 10% DMSO in saline) was injected intradermally to an indicated abdominal area using a 27-gauge sterile needle.
Skin tests were performed 0.5, 1 or 2 hours following application of the peptide. Skin tests were performed by injecting intradermally 20 μl of the allergen (0.1 mg/ml compound 48/80 dissolved in saline) or saline alone, into the center of each marked area on the abdominal skin using a 27-gauge sterile needle. The allergic response was monitored by outlining with a marker the wheals which developed in response to allergen or saline treatment.
To quantitate the skin test results, the marker signs were transferred onto paper with scotch tape. The areas of the wheals were outlined and calculated by a computerized planimeter (Hewlett-Packard), as previously described (Sussman et al., 1982).
Tables 10-16 presents the mean areas of the wheals, which developed in response to intradermal injection of each of the tested peptides, followed by either compound 48/80 or DDW injection applied after 0.5 or 1 hour. Two doses were tested for each peptide-20 and 200 μg (injection of 20 μl from a stock solution of 1 mg/ml or 10 mg/m respectively).
Skin tests on rats using compound 48/80 as the allergen assessed the ability of the peptides of the present invention to block allergic cutaneous reactions. The abdominal skin of the rats was subjected to peptide (indicated concentrations are listed in Tables 17A-17B below) or vehicle treatment (intradermal injection); the allergic response was induced by intradermal injection of compound 48/80 at various times; and the allergic response was quantified by calculating the area of the resultant allergic wheals.

[4] = incubation with different concentrations of each peptide, then induction of the allergic reaction

CC(C)C[C@H](NC(=O)CNC(=O)[C@H](CS)NC(=O)[C@H](CC(=O)O)NC(=O)[C@H](CCCCN)NC(=O)[C@H](CC(C)C)NC(=O)[C@H](CC(N)=O)NC(=O)[C@H](CCC(=O)O)NC(=O)[C@H](CCCCN)NC(=O)[C@@H]1CCCN1C(=O)[C@H](C)NC(=O)[C@H](CC(C)C)NC(=O)[C@H](CC(C)C)NC(=O)[C@H](C)NC(=O)[C@H](CC(C)C)NC(=O)[C@H](CC(C)C)NC(=O)[C@@H](NC(=O)[C@H](C)NC(=O)[C@@H]1CCCN1C(=O)[C@H](CC(C)C)NC(=O)[C@H](CC(C)C)NC(=O)[C@H](C)NC(=O)[C@@H](NC(=O)[C@H](C)NC(=O)[C@H](C)NC(=O)CCC(=O)O)C(C)C)C(C)C)C(=O)N[C@@H](Cc1ccccc1)C(=O)O [Peptide 5-Suc] (Suc-AAVALLPAVLLALLAPKENLKDCGLF-OH; C-terminus assumed)
Inhibitor (degree of inhibition of histamine secretion from mast cells) ([1]; Table 1, incubation with different concentrations of each peptide, then induction of the allergic reaction): − (− No inhibition)
Secretagogue (histamine secretion following incubation of mast cell with different concentrations of each peptide) ([2]; Table 1, peptide alone): +
histamine secretion from mast cells on incubation with increasing concentrations of peptide alone [2]: induced histamine secretion from mast cells in a concentration dependent manner

CC(C)C[C@H](NC(=O)CNC(=O)[C@H](CS)NC(=O)[C@H](CCC(=O)O)NC(=O)[C@H](CCCCN)NC(=O)[C@H](CC(C)C)NC(=O)[C@H](CC(N)=O)NC(=O)[C@H](CC(N)=O)NC(=O)[C@H](CCCCN)NC(=O)CN(C)C(=O)[C@H](C)NC(=O)[C@H](CC(C)C)NC(=O)[C@H](CC(C)C)NC(=O)[C@H](C)NC(=O)[C@H](CC(C)C)NC(=O)[C@H](CC(C)C)NC(=O)[C@@H](NC(=O)[C@H](C)NC(=O)[C@@H]1CCCN1C(=O)[C@H](CC(C)C)NC(=O)[C@H](CC(C)C)NC(=O)[C@H](C)NC(=O)[C@@H](NC(=O)[C@H](C)NC(=O)[C@H](C)NC(=O)CCC(=O)O)C(C)C)C(C)C)C(=O)N[C@@H](Cc1ccc(O)cc1)C(=O)O [WALL008] (Suc-AAVALLPAVLLALLA[Sar]KNNLKECGLY-OH; C-terminus assumed)
IC50, compound 48/80 induced histamine secretion [1]: 220 µg/mL (≈ 79.9 µM)
maximal inhibition of compound 48/80 induced histamine secretion [1]: 98.7%
Inhibitor (extent of inhibition of histamine secretion from mast cells) [1, 4]: +++ (+++ Potent inhibitor (≧80% inhibition))
block of compound 48/80 induced allergic reaction in vivo, rat skin ([3]; intradermal peptide): effectively block the allergic response in vivo
Mean Wheal Area ± STD, Compound 48/80 ([3]; intradermal peptide 1 mg/ml): 104.1 ± 18.5 (n = 4) mm^2
Mean Wheal Area ± STD, Vehicle ([3]; intradermal peptide 1 mg/ml): 79.9 ± 22.3 (n = 4) mm^2
Mean Wheal Area ± STD, Compound 48/80 ([3]; intradermal peptide 10 mg/ml): 73.7 ± 12.2 (n = 4) mm^2
Mean Wheal Area ± STD, Vehicle ([3]; intradermal peptide 10 mg/ml): 72.8 ± 13.6 (n = 4) mm^2
reduction of compound 48/80 induced allergic reaction ([3]; intradermal peptide 0.5 hour before allergic induction): significant inhibition
Secretagogue (histamine secretion following incubation of mast cell with different concentrations of each peptide) ([2]; Table 9, peptide alone): −
histamine secretion from mast cells on incubation with increasing concentrations of peptide alone [2]: did not result in histamine secretion
basal level of histamine secretion compared to control cells ([2]; peptide alone, increasing concentrations): inhibition of the basal level of histamine secretion

CC(C)C[C@H](NC(=O)CNC(=O)[C@H](CS)NC(=O)[C@H](CCC(=O)O)NC(=O)[C@H](CCCCN)NC(=O)[C@H](CC(C)C)NC(=O)[C@H](CC(N)=O)NC(=O)[C@H](CO)NC(=O)[C@H](CCCCN)NC(=O)[C@@H]1CCCN1C(=O)[C@H](C)NC(=O)[C@H](CC(C)C)NC(=O)[C@H](CC(C)C)NC(=O)[C@H](C)NC(=O)[C@H](CC(C)C)NC(=O)[C@H](CC(C)C)NC(=O)[C@@H](NC(=O)[C@H](C)NC(=O)[C@@H]1CCCN1C(=O)[C@H](CC(C)C)NC(=O)[C@H](CC(C)C)NC(=O)[C@H](C)NC(=O)[C@@H](NC(=O)[C@H](C)NC(=O)[C@H](C)NC(=O)CCC(=O)O)C(C)C)C(C)C)C(=O)N[C@@H](Cc1ccc(O)cc1)C(=O)O [WALL011] (Suc-AAVALLPAVLLALLAPKSNLKECGLY-OH; C-terminus assumed)
IC50, compound 48/80 induced histamine secretion [1]: 160 µg/mL (≈ 58.1 µM)
maximal inhibition of compound 48/80 induced histamine secretion [1]: 87%
Inhibitor (extent of inhibition of histamine secretion from mast cells) [1, 4]: +++ (+++ Potent inhibitor (≧80% inhibition))
Secretagogue (histamine secretion following incubation of mast cell with different concentrations of each peptide) ([2]; Table 9, peptide alone): −
histamine secretion from mast cells on incubation with increasing concentrations of peptide alone [2]: did not result in histamine secretion
basal level of histamine secretion compared to control cells ([2]; peptide alone at 400-600 μg/ml): minor inhibition of the basal level of histamine secretion

AAVALLPAVLLALLAAKNNLKECGLY [WALL004]
histamine secretion from mast cells, peptide alone ([2]; especially at a peptide concentration exceeding 200 μg/ml): moderate histamine secretion

AAVALLPAVLLALLAPKENLKDCGLF [Peptide 5]
Secretagogue (histamine secretion following incubation of mast cell with different concentrations of each peptide) ([2]; Table 1, peptide alone): −

AAVALLPAVLLALLAPKNNLKDCGLF [Peptide 5m]
Secretagogue (histamine secretion following incubation of mast cell with different concentrations of each peptide) ([2]; Table 1, peptide alone): +
histamine secretion from mast cells on incubation with increasing concentrations of peptide alone [2]: induced histamine secretion from mast cells in a concentration dependent manner

AAVALLPAVLLALLAPKNNLKESGLY [Peptide 25]
Secretagogue (histamine secretion following incubation of mast cell with different concentrations of each peptide) ([2]; Table 1, peptide alone): +
histamine secretion from mast cells on incubation with increasing concentrations of peptide alone [2]: induced histamine secretion from mast cells in a concentration dependent manner

AAVALLPAVLLALLAPKQNLKECGLY [WALL006]
IC50, compound 48/80 induced histamine secretion [1]: 560 µg/mL
Secretagogue (histamine secretion following incubation of mast cell with different concentrations of each peptide) ([2]; Table 9, peptide alone): −
histamine secretion from mast cells on incubation with increasing concentrations of peptide alone [2]: did not result in histamine secretion

AAVALLPAVLLALLAPLKDCGLF [Peptide 21]
histamine secretion from mast cells, peptide alone ([2]; at higher doses of 400 and 600 μg/ml): induced some histamine secretion

AAVALLPAVLLALLAPLKECGLY [Peptide 20]
Secretagogue (histamine secretion following incubation of mast cell with different concentrations of each peptide) ([2]; Table 1, peptide alone): −
histamine secretion from mast cells on incubation with increasing concentrations of peptide alone [2]: did not induce histamine secretion

AAVALLPAVLLALLAPYLGCEKLNNK [WALL023]
histamine secretion from mast cells, peptide alone ([2]; 600 μg/ml peptide): did not result in histamine secretion
Secretagogue (histamine secretion following incubation of mast cell with different concentrations of each peptide) ([2]; Table 9, peptide alone): −

KAAVALLPAVLLALLAPKNNLKDCGLF [Peptide 12]
Secretagogue (histamine secretion following incubation of mast cell with different concentrations of each peptide) ([2]; Table 1, peptide alone): +
histamine secretion from mast cells on incubation with increasing concentrations of peptide alone [2]: induced histamine secretion from mast cells in a concentration dependent manner

KAAVALLPAVLLALLAPKNNLKECGLY [Peptide 13]
Secretagogue (histamine secretion following incubation of mast cell with different concentrations of each peptide) ([2]; Table 1, peptide alone): +
histamine secretion from mast cells on incubation with increasing concentrations of peptide alone [2]: induced histamine secretion from mast cells in a concentration dependent manner

RQPKIWFPNRRKPWKKKENLKDCGLF [Peptide 6]
histamine secretion from mast cells on incubation with increasing concentrations of peptide alone [2]: induced histamine secretion from mast cells in a concentration dependent manner

RQPKIWFPNRRKPWKKKNNLKECGLY [Peptide 3]
histamine secretion from mast cells on incubation with increasing concentrations of peptide alone [2]: induced histamine secretion from mast cells in a concentration dependent manner

VTVLALGALAGVGVGKENLKDCGLF [Peptide 4]
stimulatory effect on histamine secretion ([2]; peptide alone, concentration range of up to 400 p.g/ml (FIG. 1A)): hardly any stimulatory effect
